Test results taken from US12497365B2, “4-pyridinyl formamide compound or derivative thereof, preparation method therefor, herbicidal composition and use thereof” (Qingdao Kingagroot Chemical Compound Co., Ltd., priority 2019, dated 2025).

Assays:
Test in all cases: Weeding effect in post-emergence stage
Type in all cases: in vivo
Conditions in all cases: active ingredient 2000 g/ha, 3 weeks after application, fresh weight control rate
Descurainia sophia = system: Descurainia sophia
Procedure, shortened: (§1)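 Weeds sown in soil-filled pots under 0.5-2 cm cover were grown in a greenhouse and sprayed at the 2-3 leaf stage, 2 weeks after sowing. Compounds in acetone with Tween 80 and 1.5 liter/ha methyl oleate concentrate were applied at 2000, 1000, 500, 250 or 125 g/ha. Fresh weight control rate was scored after 3 weeks.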

Abutilon theophrasti = system: Abutilon theophrasti
Procedure, shortened: as §1

[1] = system: Amaranthus retroflexus L.
Procedure, shortened: as §1

Chenopodium album = system: Chenopodium album
Procedure, shortened: as §1

SMILES | Weeding effect, activity level (growth control rate), Descurainia sophia (Descurainia sophia) | Weeding effect, activity level (growth control rate), Abutilon theophrasti (Abutilon theophrasti) | Weeding effect, activity level (growth control rate), Amaranthus retroflexus L. [1] | Weeding effect, activity level (growth control rate), Chenopodium album (Chenopodium album)
COCCc1c(C(=O)Nc2nnnn2C)ccnc1-c1ccc(F)cc1 [Compound 1-217] | 5 (Level 5: growth control rate is above 85%) | 5 (Level 5: growth control rate is above 85%) | 5 (Level 5: growth control rate is above 85%) | 5 (Level 5: growth control rate is above 85%)
C=Cc1c(C(=O)Nc2nnnn2C)ccnc1-c1ccc(F)cc1 [Compound 1-218] | 5 (Level 5: growth control rate is above 85%) | 5 (Level 5: growth control rate is above 85%) | 5 (Level 5: growth control rate is above 85%) | 5 (Level 5: growth control rate is above 85%)
C=CCc1c(C(=O)Nc2nnnn2C)ccnc1-c1ccc(F)cc1 [Compound 1-219] | 5 (Level 5: growth control rate is above 85%) | 5 (Level 5: growth control rate is above 85%) | 5 (Level 5: growth control rate is above 85%) | 5 (Level 5: growth control rate is above 85%)
C#Cc1c(C(=O)Nc2nnnn2C)ccnc1-c1ccc(F)cc1 [Compound 1-220] | 5 (Level 5: growth control rate is above 85%) | 5 (Level 5: growth control rate is above 85%) | 5 (Level 5: growth control rate is above 85%) | 5 (Level 5: growth control rate is above 85%)
Cn1nnnc1NC(=O)c1ccnc(-c2ccc(F)cc2)c1C1CC1 [Compound 1-221] | 5 (Level 5: growth control rate is above 85%) | 5 (Level 5: growth control rate is above 85%) | 5 (Level 5: growth control rate is above 85%) | 5 (Level 5: growth control rate is above 85%)
Cn1nnnc1NC(=O)c1ccnc(-c2ccc(F)cc2)c1C=C(F)F [Compound 1-222] | 5 (Level 5: growth control rate is above 85%) | 5 (Level 5: growth control rate is above 85%) | 5 (Level 5: growth control rate is above 85%) | 5 (Level 5: growth control rate is above 85%)
Cn1nnnc1NC(=O)c1ccnc(-c2ccc(F)cc2)c1-c1ccc(F)cc1 [Compound 1-223] | 5 (Level 5: growth control rate is above 85%) | 5 (Level 5: growth control rate is above 85%) | 5 (Level 5: growth control rate is above 85%) | 5 (Level 5: growth control rate is above 85%)
Cn1nnnc1NC(=O)c1ccnc(-c2cscn2)c1Cl [Compound 1-228] | 5 (Level 5: growth control rate is above 85%) | 5 (Level 5: growth control rate is above 85%) | 5 (Level 5: growth control rate is above 85%) | 5 (Level 5: growth control rate is above 85%)
Cn1nnnc1NC(=O)c1ccnc(-c2cncs2)c1Cl [Compound 1-229] | 5 (Level 5: growth control rate is above 85%) | 5 (Level 5: growth control rate is above 85%) | 5 (Level 5: growth control rate is above 85%) | 5 (Level 5: growth control rate is above 85%)
Cn1nnnc1NC(=O)c1ccnc(-c2nccs2)c1Cl [Compound 1-230] | 5 (Level 5: growth control rate is above 85%) | 5 (Level 5: growth control rate is above 85%) | 5 (Level 5: growth control rate is above 85%) | 5 (Level 5: growth control rate is above 85%)
Cn1ccnc1-c1nccc(C(=O)Nc2nnnn2C)c1Cl [Compound 1-233] | 5 (Level 5: growth control rate is above 85%) | 5 (Level 5: growth control rate is above 85%) | 5 (Level 5: growth control rate is above 85%) | 5 (Level 5: growth control rate is above 85%)
Cn1cncc1-c1nccc(C(=O)Nc2nnnn2C)c1Cl [Compound 1-234] | 5 (Level 5: growth control rate is above 85%) | 5 (Level 5: growth control rate is above 85%) | 5 (Level 5: growth control rate is above 85%) | 5 (Level 5: growth control rate is above 85%)
Cc1nnc(-c2nccc(C(=O)Nc3nnnn3C)c2Cl)s1 [Compound 1-249] | 5 (Level 5: growth control rate is above 85%) | 5 (Level 5: growth control rate is above 85%) | 5 (Level 5: growth control rate is above 85%) | 5 (Level 5: growth control rate is above 85%)
CCn1nnnc1NC(=O)c1ccnc(-c2ccc(F)cc2)c1Cl [Compound 1-307] | 5 (Level 5: growth control rate is above 85%) | 5 (Level 5: growth control rate is above 85%) | 5 (Level 5: growth control rate is above 85%) | 5 (Level 5: growth control rate is above 85%)
Cn1ncnc1NC(=O)c1ccnc(-c2ccc(F)cc2)c1Cl [Compound 1-334] | 5 (Level 5: growth control rate is above 85%) | 5 (Level 5: growth control rate is above 85%) | 5 (Level 5: growth control rate is above 85%) | 5 (Level 5: growth control rate is above 85%)
Cc1nnc(NC(=O)c2ccnc(-c3ccc(F)cc3)c2Cl)n1C [Compound 1-650] | 5 (Level 5: growth control rate is above 85%) | 5 (Level 5: growth control rate is above 85%) | 5 (Level 5: growth control rate is above 85%) | 5 (Level 5: growth control rate is above 85%)
Cc1nnc(NC(=O)c2ccnc(-c3ccc(F)cc3)c2Cl)o1 [Compound 1-962] | 5 (Level 5: growth control rate is above 85%) | 5 (Level 5: growth control rate is above 85%) | 5 (Level 5: growth control rate is above 85%) | 5 (Level 5: growth control rate is above 85%)
O=C(Nc1nnc(C2CC2)o1)c1ccnc(-c2ccc(F)cc2)c1Cl [Compound 1-1257] | 5 (Level 5: growth control rate is above 85%) | 5 (Level 5: growth control rate is above 85%) | 5 (Level 5: growth control rate is above 85%) | 5 (Level 5: growth control rate is above 85%)
O=C(Nc1ccon1)c1ccnc(-c2ccc(F)cc2)c1Cl [Compound 1-1286] | 5 (Level 5: growth control rate is above 85%) | 5 (Level 5: growth control rate is above 85%) | 5 (Level 5: growth control rate is above 85%) | 5 (Level 5: growth control rate is above 85%)
